Source: patent US4857508A, “Novel platelet-aggregation inhibitor peptide derivatives” (Monsanto Company, priority 1987, dated 1989)
pIC50: −log10 of the molar value. Like-named read-outs stand apart in the source and are kept apart here. Non-standard residues stand in square brackets, D forms with d. Residues, ends and D or L forms follow the SMILES beside them.

Tests used:
washed human platelets = washed human platelets (Homo sapiens, UniProt P05106+P08514); assay: Inhibition of thrombin-induced platelet aggregation in washed human platelets; type: cell-based; conditions: for inhibition at 100 µM: peptide 10^-4 M; for pIC50: linear regression of dose response curve
Description: In one assay, the peptides are tested for their inhibition of thrombin-induced platelet aggregation in washed human platelets. The % inhibition is determined for the test peptide by comparing the extent of platelet aggregation in the presence and absence of the peptide.
Platelet Preparation: 60 ml of whole blood is freshley drawn and anticoagulated with 1/10th volume of CCD (100 mM Na Citrate and 136 mM glucose, pH 6.5 with HCl) at room temperature (RT). The blood is divided into 2 disposable 60 ml plastic centrifuge tubes and centrifuged for 3 minutes at 1000×g, allowing the centrifuge to coast to a stop (no brake). The platelet rich plasma (PRP) is withdrawn, being careful that no white cells are taken and is placed in a 60 ml centrifuge tube. The tube is immediately placed on ice for 15 minutes. After the 15 minutes at 0° C., 1/2 volume of ice cold CCD is added (i.e. 15 ml CCD/30 ml of PRP). The tube is mixed and the contents are divided equally into two centrifuge tubes. These are then centrifuged at 0° C. for 10 minutes at 900×g (no brake). The supernatant is carefully poured off. The platelet pellet is gently resuspended in 1/2 the original volume of PRP in a 0° C. modified Tangen-Hepes-BSA buffer, pH 7.4, consisting of 145 mM NaCl, 5 mM KCl, 0.05 mM CaCl2, 0.1 mM MgCl2, 11 mM glucose, 15 mM Hepes (N-2-hydroxyethylpiperazine-N'-2-ethanesulfonic acid), 1 mg/ml bovine serum albumin, (pH adjusted with NaOH). The resuspended pellets are combined into 1 centrifuge tube and incubated undisturbed at 37° C. for 30 minutes. After the incubation, the platelet suspension is removed and an aliquot is quickly counted in a hemocytometer or a Coulter® Counter (Coulter Electronics, Hialeah, Fla.). The platelet count is adjusted to 3×10^8 cells/ml with the Tangen-Hepes-BSA buffer.
Compound Testing: Aggregation studies are accomplished using a Payton aggregometer (Payton Scientific, Inc., Buffalo, N.Y.). […] All compounds are diluted to a working concentration of 10^-3 M with double distilled water. The reaction mixture consisted of 400 μl of 3×10^8 /ml washed platelets, 50 μl of buffer (control) or test compound at 10^-3 M with a final concentration of 10^-4 M. Platelets, test compound or buffer are placed in cuvettes in the aggregometer for a 1 minute preincubation before adding thrombin. 50 μl of 0.5 U/ml thrombin is added to cuvettes and the aggregation is monitored for 1 minute, which is the time for maximal aggregation of the platelets. All compounds are run in duplicate. The entire test is run within 3 hours, since this is the maximal viability of the platlets.

[1] = test system: collagen induced thrombocytopenia (platelet aggregation); assay: In vivo rat thrombocytopenia (collagen induced); conditions: for inhibition in the in vivo thrombocytopenia assay: dose not printed there; for % Inhibition at 1 mg/kg: collagen 60 μg/kg
Description: In yet another test, the effect of the peptide on collagen induced thrombocytopenia (platelet aggregation) is measured in vivo in the art. Again, the % inhibition is determined for the test peptide and compared against a saline or ethanol vehicle in the absence of peptide.
Male rats (Charles River, CRL:CD(SD), 400-450 g) were used. The rats were anesthetized with Na pentabarbital (65 mg/kg, Vet Labs, Limited, Inc., Lenexa, KA). Two incisions were made to expose both jugular veins. Using an infusion pump (Harvard Apparatus, South Natick, Mass.) and a 5 cc syringe with a 19 g. butterfly, the test compound or vehicle was infused into the left jugular vein at a rate of 0.39 ml/min for 3 min. After 2 min of compound/vehicle infusion, collagen (60 μg/kg) (Helena Laboratories,Beaumont, TX) was injected with a 1 ml syringe into the right jugular vein. The body cavity was opened and the vena cava was exposed for blood sampling. One min after the collagen injection, compound infusion was stopped and blood was sampled from the vena cava (within 30 sec) with a 3 cc syringe containing […] of 4.5% EDTA/Tris (0.1M) (pH 7.35) plus 150 μM indomethacin. Platelet rich plasma (PRP) was prepared by centrifuging the blood at 126× g for 10 min. Five μl of PRP was counted in 20 ml of Isoton® III in a Coulter Counter. Percent inhibition of collagen induced aggregation was calculated by comparison of the number of platelets counted in treated animals with numbers for animals receiving no collagen and with counts from animals receiving vehicle and collagen. Estimation of potency was based on inhibition of collagen-induced thrombocytopenia.
Four animals were tested with each compound to give the data shown.

[2] = molecular target: human platelets in platelet-rich plasma (Homo sapiens, UniProt P05106+P08514); assay: In-vitro human platelet aggregation in platelet-rich plasma (PRP), ADP-induced; type: cell-based; conditions: for pIC50: linear regression of dose response curve
Description: In another assay, platelet aggregation is examined in platelet-rich plasma which also is rich in fibrinogen and other plasma proteins.
The syringe is rotated carefully as blood is being drawn to mix the citrate. Platelet-rich plasma (PRP) is prepared by centrifugation at 100×g for 10 minutes at room temperature, allowing the centrifuge to coast to a stop without braking. The PRP is removed from the blood with a plastic pipette and placed in a plastic, capped, 50 ml Corning conical sterile centrifuge tube. The tube is capped and placed at room temperature. Platelet poor plasma (PPP) is prepared by centrifuging the remaining blood at 2000×g for 15 minutes at room temperature allowing the centrifuge to coast to a stop without braking. The PRP is adjusted with PPP to a count of 2-3×10^8 platelets per ml. 400 μl of the PRP preparation and 50 μl of the compound to be tested or saline were preincubated for 1 minute at 37° C. in a Payton aggregometer (Payton Scientific, Inc., Buffalo, NY). 50 μl of adenosine 5'diphosphate (ADP) (50 μM) is added to the cuvettes and the aggregation is monitored for 1 minute. All compounds are tested in duplicate. The entire procedure is run within 3 hours, since this is the maximal viability of the platelets. The saline instead of compound is used to determine the maximal aggregation.

Sequence of washed human platelets (P08514 32-1039): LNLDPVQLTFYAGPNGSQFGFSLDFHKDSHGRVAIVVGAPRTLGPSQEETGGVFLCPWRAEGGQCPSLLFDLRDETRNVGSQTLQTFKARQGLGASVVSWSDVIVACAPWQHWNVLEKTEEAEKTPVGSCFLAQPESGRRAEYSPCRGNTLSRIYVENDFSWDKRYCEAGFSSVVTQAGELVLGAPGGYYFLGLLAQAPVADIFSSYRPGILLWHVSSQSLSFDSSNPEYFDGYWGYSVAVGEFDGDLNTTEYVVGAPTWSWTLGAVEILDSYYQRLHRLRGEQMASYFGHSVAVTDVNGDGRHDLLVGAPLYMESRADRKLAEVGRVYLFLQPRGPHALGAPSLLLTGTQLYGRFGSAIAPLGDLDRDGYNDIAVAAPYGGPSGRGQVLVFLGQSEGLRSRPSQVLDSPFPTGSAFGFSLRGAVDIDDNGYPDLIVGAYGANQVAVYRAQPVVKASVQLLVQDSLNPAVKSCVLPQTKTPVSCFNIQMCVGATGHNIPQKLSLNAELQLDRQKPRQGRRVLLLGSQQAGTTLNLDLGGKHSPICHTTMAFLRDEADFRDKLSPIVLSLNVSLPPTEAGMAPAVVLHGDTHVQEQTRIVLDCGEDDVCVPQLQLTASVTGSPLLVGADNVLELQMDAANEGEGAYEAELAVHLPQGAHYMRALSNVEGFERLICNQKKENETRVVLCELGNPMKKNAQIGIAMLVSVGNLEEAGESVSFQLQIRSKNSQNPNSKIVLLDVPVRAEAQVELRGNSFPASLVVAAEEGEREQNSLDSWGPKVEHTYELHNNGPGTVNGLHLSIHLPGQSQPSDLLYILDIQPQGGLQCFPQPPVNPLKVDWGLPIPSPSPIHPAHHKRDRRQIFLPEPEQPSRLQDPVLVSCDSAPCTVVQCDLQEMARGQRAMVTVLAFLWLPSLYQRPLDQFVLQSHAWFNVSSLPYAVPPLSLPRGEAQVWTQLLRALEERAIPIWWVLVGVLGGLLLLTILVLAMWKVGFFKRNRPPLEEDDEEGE
Sequence of washed human platelets (P05106 27-788): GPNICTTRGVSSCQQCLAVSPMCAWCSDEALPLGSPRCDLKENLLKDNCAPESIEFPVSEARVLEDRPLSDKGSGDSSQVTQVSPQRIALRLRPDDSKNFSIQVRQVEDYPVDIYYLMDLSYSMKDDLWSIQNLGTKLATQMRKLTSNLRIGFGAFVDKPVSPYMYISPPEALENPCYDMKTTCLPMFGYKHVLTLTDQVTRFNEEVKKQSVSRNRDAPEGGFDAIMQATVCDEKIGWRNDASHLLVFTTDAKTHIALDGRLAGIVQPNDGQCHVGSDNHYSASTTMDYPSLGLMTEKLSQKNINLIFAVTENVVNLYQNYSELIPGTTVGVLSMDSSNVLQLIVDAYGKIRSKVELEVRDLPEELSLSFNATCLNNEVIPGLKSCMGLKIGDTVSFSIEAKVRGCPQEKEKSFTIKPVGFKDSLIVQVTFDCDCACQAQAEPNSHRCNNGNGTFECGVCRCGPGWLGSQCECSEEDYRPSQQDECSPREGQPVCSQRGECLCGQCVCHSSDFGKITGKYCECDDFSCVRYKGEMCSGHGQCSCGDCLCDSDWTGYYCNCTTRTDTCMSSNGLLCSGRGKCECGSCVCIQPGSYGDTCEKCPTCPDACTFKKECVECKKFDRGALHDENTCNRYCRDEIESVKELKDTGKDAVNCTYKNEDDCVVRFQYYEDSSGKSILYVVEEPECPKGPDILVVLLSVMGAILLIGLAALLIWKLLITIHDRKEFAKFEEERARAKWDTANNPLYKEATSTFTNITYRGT
Sequence of human platelets in platelet-rich plasma (P08514 32-1039): as the sequence (P08514 32-1039) above
Sequence of human platelets in platelet-rich plasma (P05106 27-788): as the sequence (P05106 27-788) above

Row | Compound | inhibition at 100 µM (washed human platelets) [%] | pIC50 (washed human platelets) | pIC50 ([2]; read-out: IC50) | inhibition at 100 µM ([2]; peptide 10^-4 M) [%] | other results
1 | N=C(N)NCCC[C@H](N)C(=O)NCC(=O)N[C@@H](CC(=O)O)C(=O)N[C@@H](Cc1ccc(O)cc1)C(N)=O [RGDY--NH2, reference compound] (H-RGDY-NH2) | 45 |  |  |  | inhibition in the in vivo thrombocytopenia assay [1]: 19%; % Inhibition at 1 mg/kg ([1]; rat, i.v. infusion): 19 ± 12%; Maximum Inhibition % ([1]; rat, i.v. infusion, collagen induced thrombocytopenia): 20%
2 | CCOc1ccc(C[C@H](NC(=O)[C@H](CC(=O)O)NC(=O)CNC(=O)[C@@H](N)CCCNC(=N)N)C(N)=O)cc1 [RGD(O--ethyl-Tyr)--NH2, Arg-Gly-Asp-(O-ethyltyrosine)-amide] (H-RGDY(Et)-NH2) | 54 |  |  |  | 
3 | COc1ccc(C[C@H](NC(=O)[C@H](CC(=O)O)NC(=O)CNC(=O)CCCCCNC(=N)N)C(N)=O)cc1 [des-amino-(homoarginine)-Gly-Asp-(O-methyltyrosine)-amide] | 82 | 5.00 | 4.70 | 100 | 
4 | CC(=O)N[C@@H](CCCNC(=N)N)C(=O)NCC(=O)N[C@@H](CC(=O)O)C(=O)N[C@@H](Cc1ccc(O)cc1)C(N)=O [Ac--RGDY--NH2] (Ac-RGDY-NH2) | 68 |  |  | 48 | inhibition in the in vivo thrombocytopenia assay [1]: 85%; % Inhibition at 1 mg/kg ([1]; rat, i.v. infusion): 85%
5 | COc1ccc(C[C@H](NC(=O)[C@H](CC(=O)O)NC(=O)CNC(=O)CCCCNC(=N)N)C(N)=O)cc1 [des-NH2 --RGD(O--methyl-Tyr)--NH2, des-amino-Arg-Gly-Asp-(O-methyltyrosine)-amide] | 90 | 5.00 | 4.70 | 100 | 
6 | N=C(N)NCCC[C@H](N)C(=O)NCC(=O)N[C@@H](CC(=O)O)C(=O)N[C@@H](Cc1ccccc1)C(N)=O [RGDF--NH2, reference compound] (H-RGDF-NH2) | 77 |  |  | 100 | 
7 | NC(=O)[C@H](Cc1ccccc1)NC(=O)[C@H](CC(=O)O)NC(=O)CNC(=O)[C@@H](N)CCCN=C(N)N [RGDF--NH2, reference compound] (H-RGDF-NH2) |  | 5.00 | 4.70 |  | 
8 | COc1ccc(CC(NC(=O)[C@H](CC(=O)O)NC(=O)CNC(=O)[C@@H](N)CCCNC(=N)N)C(N)=O)c2ccccc12 (stereo partly drawn) [RGD(4-methoxy-1-naphthyl-Ala)--NH2, Arg-Gly-Asp-(4-methoxy-1-naphthylalanine)-amide] |  |  | 5.00 | 100 | 
9 | COc1ccc(C[C@H](NC(=O)[C@H](CC(=O)O)NC(=O)CNC(=O)[C@@H](CCCNC(=N)N)NC(C)=O)C(N)=O)cc1 [Ac--(D-Arg)GD(O--methyl-Tyr)--NH2, acetyl-(D-Arg)-Gly-Asp-(O-methyltyrosine)-amide] (Ac-[dR]GDY(Me)-NH2) |  |  |  | 71 | 
10 | Arg-Gly-Asp-(p-phenyl-phenylalanine)-amide [RGD(p-phenyl-Phe)--NH2] |  |  |  |  | % Inhibition at 10^-4 M ([2]; peptide 10^-4 M): 100%
11 | N=C(N)NCCC[C@H](N)C(=O)NCC(=O)N[C@@H](CC(=O)O)C(=O)N[C@@H](CO)C(=O)O [RGDS, Arg-Gly-Asp-Ser, reference compound] | 71 |  |  | 25 | 
12 | COc1ccc(C[C@H](NC(=O)[C@H](CC(=O)O)NC(=O)CNC(=O)[C@H](CCCNC(=N)N)NC(C)=O)C(N)=O)cc1 [Ac--RGD(O--methyl-Tyr)--NH2, acetyl-Arg-Gly-Asp-(O-methyltyrosine)-amide] (Ac-RGDY(Me)-NH2) | 78 | 4.70 | 4.70 | 100 | % Inhibition at 1 mg/kg ([1]; rat, i.v. infusion): 86%
13 | COc1cc(C)c(CC(NC(=O)[C@H](CC(=O)O)NC(=O)CNC(=O)[C@@H](N)CCCNC(=N)N)C(N)=O)c(C)c1 (stereo partly drawn) [RGD(2,6-dimethyl-O--methyl-Tyr)--NH2, Arg-Gly-Asp-(2,6-dimethyl-O-methyltyrosine)amide] | 78 | 4.70 |  | 53 | pIC50 [2]: 4.05
14 | N=C(N)NCCC[C@H](NC(=O)CN)C(=O)NCC(=O)N[C@@H](CC(=O)O)C(=O)N[C@@H](CO)C(=O)N1CCC[C@H]1C(N)=O [GRGDSP--NH2, reference compound] | 55 |  |  | 23 | 
15 | CC(=O)N[C@@H](CCCN=C(N)N)C(=O)NCC(=O)N[C@@H](CC(=O)O)C(=O)N[C@@H](Cc1ccc(O)cc1)C(N)=O [Ac--RGDY--NH2] (Ac-RGDY-NH2) |  | 4.30 |  |  | 
16 | COc1ccc(C[C@H](NC(=O)[C@H](CC(=O)O)NC(=O)CNC(=O)[C@@H](N)CCCNC(=N)N)C(N)=O)cc1 [RGD(O--methyl-Tyr)--NH2, Arg-Gly-Asp-(O-methyltyrosine)-amide] (H-RGDY(Me)-NH2) | 79 | 4.70 | 4.52 | 100 | 
